Read-outs that look alike come from different tables or passages of the source.
Legend:
MM.1S cells [1] = experiment: In vitro cytotoxic potency in MM.1S cell viability assay (CellTiter-Glo); type: cell-based, human; settings: Homo sapiens, MM1.S, 72 h
Summary of the method: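 Log-phase MM.1S cells in supplemented RPMI 1640 were seeded at 100000 cells/mL with compound (0.2% DMSO final). After 72 h at 37 °C in CO2, viability was measured by CellTiter-Glo 2.0 luminescence.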

THP-1 = experiment: In vitro cytotoxicity, THP-1 (Acute Myeloid Leukemia); type: cell-based; settings: Homo sapiens, THP-1; 72 h, CellTiter-Glo 2.0; read-out: Cytotoxicity IC50, THP-1
Method: (§1) All cells were cultivated in RPMI medium 1640 (IX). All media was supplemented with 10 μg/μl penicillin/streptomycin, 10% heat inactivated FBS, 0.1 mM Sodium Pyruvate, 1×MEM NEAA (ThermoFisher) and 1 mM HEPES. The DERL-2 cells had higher FBS (20%) and 40 ng/mL IL-2 was added. hPBMCs were thawed and allowed to acclimatise overnight and then stimulated with 10 μg/mL PHA-M and 40 ng/mL IL-2 for 4 hours before being exposed to test compounds. All cells, except for hPBMCs, were grown to reach log phase before being exposed to the test compounds.
(§2) Test compounds were dissolved in 100% DMSO and added to a 384 assay plate. Additional DMSO was added to maintain the same final DMSO concentration (0.2%) in all wells. 25 μL cell suspension with a concentration of 100000 cells/mL was added to each well. The cells were cultured in a CO2 incubator at 37° C. for 72 h. Plates were equilibrated to room temperature for 30 minutes before adding 20 μL CellTiter-Glo® 2.0 (Promega) reagent to all wells. The plate was then allowed to stabilize for 20 minutes before recording the luminescence (Em filter 700 nm) in an Envision plate reader.

[2] = In vitro cytotoxicity, human peripheral blood mononuclear cells; type: cell-based; settings: CellTiter-Glo 2.0, stimulated with PHA-M and IL-2, read-out: Cytotoxicity IC50, hPBMC
Method: as §1, §2

KMS-12-BM = experiment: In vitro cytotoxicity, KMS-12-BM (Multiple Myeloma); type: cell-based; settings: Homo sapiens, 72 h, CellTiter-Glo 2.0, read-out: Cytotoxicity IC50, KMS-12-BM
Method: as §1, §2

EJM = experiment: In vitro cytotoxicity, EJM (Multiple Myeloma); type: cell-based; settings: Homo sapiens, 72 h, CellTiter-Glo 2.0, read-out: Cytotoxicity IC50, EJM
Method: as §1, §2

OPM-2 = experiment: In vitro cytotoxicity, OPM-2 (Multiple Myeloma); type: cell-based; settings: Homo sapiens, OPM-2; 72 h, CellTiter-Glo 2.0; read-out: Cytotoxicity IC50, OPM-2
Method: as §1, §2

U266 = experiment: In vitro cytotoxicity, U266 (Multiple Myeloma); type: cell-based; settings: Homo sapiens, U-266; 72 h, CellTiter-Glo 2.0; read-out: Cytotoxicity IC50, U266
Method: as §1, §2

SUP-T1 = experiment: In vitro cytotoxicity, SUP-T1 (T cell Lymphoma); type: cell-based; settings: Homo sapiens, SUP-T1; 72 h, CellTiter-Glo 2.0; read-out: Cytotoxicity IC50, SUP-T1
Method: as §1, §2

SC-1 = experiment: In vitro cytotoxicity, SC-1 (B cell Lymphoma); type: cell-based; settings: Homo sapiens, SC-1; 72 h, CellTiter-Glo 2.0; read-out: Cytotoxicity IC50, SC-1
Method: as §1, §2

[3] = In vitro cytotoxicity, BJ fibroblasts (normal cells); type: cell-based; settings: human, CellTiter-Glo 2.0
Method: as §1, §2

AMO-1 = experiment: In vitro cytotoxicity, AMO-1 (Multiple Myeloma); type: cell-based; settings: Homo sapiens, AMO1; 72 h, CellTiter-Glo 2.0; read-out: Cytotoxicity IC50, AMO-1
Method: as §1, §2

RPMI-8226 = experiment: In vitro cytotoxicity, RPMI-8226 (Multiple Myeloma, resistant); type: cell-based; settings: Homo sapiens, RPMI-8226; 72 h, CellTiter-Glo 2.0; read-out: Cytotoxicity IC50, RPMI-8226
Method: as §1, §2

[4] = system: DNA prepared from MM.1S cells (nuclear HPRT and mitochondrial DNA); experiment: Direct DNA damage, PCR amplification of treated DNA (HPRT and mtDNA primers); type: biochemical, human; settings: 0.25 μM compound, 30 minutes, 37° C., 1 μg DNA
Method: Method: DNA was prepared from MM.1S cells by QIAGEN genomic tip 20/G according to protocol described in Furda et al., Methods Mol Biol, 2012. 1 μg of DNA was treated with 0.25 μM compound for 30 minutes at 37° C. DMSO was used as control treatment. 20 ng of the treated DNA was PCR amplified using Phusion Hot Start II High Fidelity PCR Master Mix (Thermo Scientific) and primers directed to either HPRT or primers directed to mitochondrial DNA (mtDNA) was used, generating 10.4 or 8.9 kb fragments, respectively. The PCR reactions were separated on a 1% agarose gel and visualized by ChemiDoc™ MP Imaging System (BioRad). Example compounds 1, 2 and 38 were investigated, as were compounds 18 and 20, which are metabolites of compound 1. They were compared with bendamustine, melphalan and DMSO control. The results for compounds 1, 2, 18 and 20 with the HPRT primers are shown in FIG. 4(A); the results with the mtDNA primers are shown in FIG. 4(B).

MM.1S cells [5] = experiment: Cellular retention/efflux: intracellular and extracellular concentrations by LC-MS/MS; type: in vitro ADME, human; settings: metabolites measured after treatment with the parent Example compound
Method: Methods: MMA1S cells at 2×10^6 cells/mL were seeded at 250 μL per well in a 96-well plate. Cells were incubated in the presence of a test compound for 5, 15, and 60 min before pelleting cells by centrifugation at +4° C. for 5 min. Cell media was immediately harvested to a second plate and stored at −80° C. until further analysis. Pelleted cells were washed once with ice cold PBS before storage at −80° C. until further analysis.
Cells were lysed and protein in the media were precipitated using acetonitrile dimethylformamide, 9:1 containing internal standard. Samples were centrifuged and the supernatant was analyzed with LC-MS/MS (ACQUITY UPLC-Xevo TQ-S micro) to determine compound concentration.
Example compound 1, bendamustine and melphalan were used as test compounds.
Method: Method described in Biological example 3.
Example compounds 1, 2, 3, 4, 6, 7 and 10 were investigated. Intracellular metabolites are formed from all compounds tested. The compound used for cell treatment was metabolised to the ester-hydrolysed compound (here called Metabolite A) and to the amide-hydrolysed compound (called Metabolite B). The example compound structures and the structures of the two metabolites for the respective compounds were as shown in Table 4. The Metabolites B formed under the conditions tested were compounds with structure as Examples 17 and 18: […]

DERL-2 = experiment: In vitro cytotoxicity, DERL-2 (T cell Lymphoma); type: cell-based; settings: Homo sapiens, 72 h, CellTiter-Glo 2.0, 20% FBS, 40 ng/mL IL-2, read-out: Cytotoxicity IC50, DERL-2
Method: as §1, §2

In the case of `N[C@@H](Cc1ccc(N(CCCl)CCCl)cc1)C(=O)O` [Melphalan, melphalan, reference compound], the IC50 (MM.1S cells [1]; read-out: Cytotoxicity IC50, MM.1S) is reported as 4.25 µM, the IC50 (MM.1S cells [1]; read-out: MM.1S IC50) is reported as 4.25 µM and the IC50 (THP-1) is reported as 4.31 µM. For the same compound, the IC50 at 72 h [2] was 3.6 µM, the IC50 (KMS-12-BM) was 9.83 µM and the IC50 (EJM) was 40 µM. It also gave an IC50 (OPM-2) of 10.2 µM, an IC50 (U266) of 18.9 µM and an IC50 (SUP-T1) of 2.96 µM. For the same compound, the IC50 (SC-1) was 8.64 µM, the IC50 at 72 h [3] was 104 µM and the IC50 (AMO-1) was 8.34 µM. The IC50 (RPMI-8226) was 32.5 µM, the “DNA damage on nuclear and mitochondrial DNA (PCR band)” value [4] was “no or very minor effect on DNA damage” and the “Intracellular concentration (in words)” value (MM.1S cells [5]; MM.1S cells incubated with test compound 5, 15, 60 min) was “low intracellular concentration”. For the same compound, the “Extracellular concentration (in words)” value (MM.1S cells [5]; media of MM.1S cells incubated with test compound 5, 15, 60 min) was “high and constant throughout the experiment” and the IC50 (DERL-2) was 1.88 µM.

Reference: patent US20240316059A1, “PEPTIDE DRUG CONJUGATES” (Oncopeptides AB, priority 2021, published 2024)
